Legend:
[1] = target: T1, E. coli WT RNAP (Escherichia coli, UniProt P0A8V2); assay: biochemical
T1 construct: made in house

[2] = target: T2, E. coli D516V (RIF^R) RNAP (Escherichia coli, UniProt P0A8V2, D516V); assay: biochemical
T2 construct: made in house

[3] = target: T3, E. coli S531L (RIF^R) RNAP (Escherichia coli, UniProt P0A8V2, S531L); assay: biochemical
T3 construct: made in house

[4] = system: VERO cells (ATCC CRL-81); assay: Vero cell toxicity; type: cell-based; conditions: Chlorocebus sabaeus, Vero; 72 hours exposure
Protocol: Cytotoxicity for a mammalian cell line was determined by exposing VERO cells (ATCC CRL-81) to serial dilutions of test compounds for 72 hours, followed by addition of resazurin and measurement of fluorescence after 4 hours incubation (Choules, et al., Antimnicrob. Agents Chemother. 2019, 63, e02204-02218).

[5] = system: DPX2 cells; conditions: for DPX2 Viability @ 6.25 μM: 24 h; for DPX2 Viability @ 25 μM: human
[6] = system: MTB H37Rv ATCC 27294; assay: MIC, microplate Alamar Blue assay (MABA); type: cell-based, Mycobacterium tuberculosis
[7] = system: M. tuberculosis H37Rv; assay: Minimum bactericidal concentration (MBC, CFU Assay); type: cell-based, Mycobacterium tuberculosis; conditions: for MBC99 Day 7 (CFU Assay) MBC99 Rel to RMP: CFU Assay MBC99 relative to rifampin (RMP = 1); for MBC: Mycobacterium tuberculosis, 168 h, Day 7, M. tuberculosis H37Rv, ≥99% reduction in colony forming units, read-out: MBC99 Day 7 (CFU Assay) MBC99
[8] = Mycobacterium tuberculosis, MTB H37Rv ATCC 27294, microplate Alamar Blue assay, lowest concentration giving ≥90% reduction in fluorescence

Compound | IC50 [1] | IC50 [2] | IC50 [3] | IC50 [4] | DPX2 Viability @ 6.25 μM [5] | DPX2 Viability @ 25 μM [5] | MIC90 MABA Rel to RMP [6] | MIC ([6]; Mycobacterium tuberculosis, MTB H37Rv ATCC 27294, microplate Alamar Blue assay, lowest concentration giving ≥90% reduction in fluorescence, read-out: MIC90 MABA) | MIC90 [6, 8] | DPX2 Viability ([5]; 21 μM) | MBC99 Day 7 (CFU Assay) MBC99 Rel to RMP [7] | MBC [7]
CO[C@H]1/C=C/O[C@@]2(C)Oc3c(C)c(O)c4c(=O)c(c5oc6cccc(OCCCCN7CCNCC7)c6nc-5c4c3C2=O)NC(=O)/C(C)=C\C=C\[C@H](C)[C@H](O)[C@@H](C)[C@@H](O)[C@@H](C)[C@H](OC(C)=O)[C@@H]1C [Compound 5d, (7S,9E,11S,12R,13S,14R,15R,16R,17S,18S,19E,21Z)-2,15,17-Trihydroxy-11-methoxy-3,7,12,14,16,18,22-heptamethyl-6,23,37-trioxo-32-[4-(piperazin-1-yl)butoxy]-8,27,38-trioxa-24,34-diazahexacyclo[23.11.1.1^4,7.0^5,36.0^26,35.0^28,33]octatriaconta-1(36)2,4,9,19,21,25,28,30,32,34-undecaen-13-yl acetate] | 0.006 µM | 29 µM | 440 µM | > 8 µM | 102% | 59% | – | – | – | – | – | –
CO[C@H]1/C=C/O[C@@]2(C)Oc3c(C)c(O)c4c(=O)c(c5oc6cccc(OCCCCN7CCN(C(=O)CN8CCOCC8)CC7)c6nc-5c4c3C2=O)NC(=O)/C(C)=C\C=C\[C@H](C)[C@H](O)[C@@H](C)[C@@H](O)[C@@H](C)[C@H](OC(C)=O)[C@@H]1C [Compound 5e, (7S,9E,11S,12R,13S,14R,15R,16R,17S,18S,19E,21Z)-2,15,17-Trihydroxy-11-methoxy-3,7,12,14,16,18,22-heptamethyl-32-(4-{4-[2-(morpholin-4-yl)acetyl]piperazin-1-yl}butoxy)-6,23,37-trioxo-8,27,38-trioxa-24,34-diazahexacyclo[23.11.1.1^4,7.0^5,36.0^26,35.0^28,33]octatriaconta-1(36)2,4,9,19,21,25,28(33)29,31,34-undecaen-13-yl acetate] | 0.007 µM | 23 µM | > 1000 µM | > 8 µM | 106% | 83% | 1.4 | 0.082 µM | – | – | – | –
CO[C@H]1/C=C/O[C@@]2(C)Oc3c(C)c(O)c4c(=O)c(c5oc6cccc(OCc7cccc(CN8CCN(C(C)=O)CC8)c7)c6nc-5c4c3C2=O)NC(=O)/C(C)=C\C=C\[C@H](C)[C@H](O)[C@@H](C)[C@@H](O)[C@@H](C)[C@H](OC(C)=O)[C@@H]1C [Compound 11c, (7S,9E,11S,12R,13S,14R,15R,16R,17S,18S,19E,21Z)-32-({3-[(4-Acetylpiperazin-1-yl)methyl]phenyl}methoxy)-2,15,17-trihydroxy-11-methoxy-3,7,12,14,16,18,22-heptamethyl-6,23,37-trioxo-8,27,38-trioxa-24,34-diazahexacyclo-[23.11.1.1^4,7.0^5,36.0^26,35.0^28,33]octatriaconta-1(36)2,4,9,19,21,25,28,30,32,34-undecaen-13-yl acetate] | 0.019 µM | 8.8 µM | 330 µM | > 8 µM | 103% | 70% | 1.4 | – | 0.058 µM | – | – | –
CCC(=O)N1CCN(Cc2cccc(COc3cccc4oc5c6c(=O)c7c(O)c(C)c8c(c7c-5nc34)C(=O)[C@@](C)(O/C=C/[C@H](OC)[C@@H](C)[C@@H](OC(C)=O)[C@H](C)[C@H](O)[C@H](C)[C@@H](O)[C@@H](C)/C=C/C=C(/C)C(=O)N6)O8)c2)CC1 [Compound 11d, (7S,9E,11S,12R,13S,14R,15R,16R,17S,1S,19E,21Z)-2,15,17-Trihydroxy-11-methoxy-3,7,12,14,16,18,22-heptamethyl-6,23,37-trioxo-32-{(3-[(4-propanoylpiperazin-1-yl)methyl]phenyl}methoxy)-8,27,38-trioxa-24,34-diazahexacyclo[23.11.1.1^4,7.0^5,36.0^26,35.0^28,33]octatriaconta-1(36)2,4,9,19,21,25,28,30,32,34-undecaen-13-yl acetate] | < 0.005 µM | 0.9 µM | 94 µM | 19.1 µM | 77% | 33% | 0.43 | – | 0.016 µM | – | – | –
CO[C@H]1/C=C/O[C@@]2(C)Oc3c(C)c(O)c4c(=O)c(c5oc6cccc(OCc7cccc(CN8CCN(C(=O)CN9CCOCC9)CC8)c7)c6nc-5c4c3C2=O)NC(=O)/C(C)=C\C=C\[C@H](C)[C@H](O)[C@@H](C)[C@@H](O)[C@@H](C)[C@H](OC(C)=O)[C@@H]1C [Compound 11f, (7S,9E,11S,12R,13S,14R,15R,16R,17S,1S,19E,21Z)-2,15,17-Trihydroxy-11-methoxy-3,7,12,14,16,18,22-heptamethyl-32-{[3-({4-[2-(morpholin-4-yl)acetyl]piperazin-1-yl}methyl)phenyl]methoxy}-6,23,37-trioxo-8,27,38-trioxa-24,34-diazahexacyclo[23.11.1.1^4,7.0^5,36.0^26,35.0^28,33]octatriaconta-1(36)2,4,9,19,21,25,28,30,32,34-undecaen-13-yl acetate] | 0.01 µM | 39 µM | > 500 µM | 6.2 µM | 103% | – | 0.65 | – | 0.024 µM | 57% | – | –
CO[C@H]1/C=C/O[C@@]2(C)Oc3c(C)c(O)c4c(=O)c(c5oc6cc(N7CCN(C(=O)c8cccc(-n9ccnc9)c8)CC7)cc(C)c6nc-5c4c3C2=O)NC(=O)/C(C)=C\C=C\[C@H](C)[C@H](O)[C@@H](C)[C@@H](O)[C@@H](C)[C@H](OC(C)=O)[C@@H]1C [Compound 29a, (7S,9E,11S,12R,13S,14R,15R,16R,17S,18S,19E,21Z)-2,15,17-Trihydroxy-30-{4-[3-(1H-imidazol-1-yl)benzoyl]piperazin-1-yl}-11-methoxy-3,7,12,14,16,18,22,32-octamethyl-6,23,37-trioxo-8,27,38-trioxa-24,34-diazahexacyclo[23.11.1.1^4,7.0^5,36.0^26,35.0^28,33]octatriaconta-1(36)2,4,9,19,21,25,28,30,32,34-undecaen-13-yl acetate] | – | – | – | > 10 µM | – | 149% | 1.33 | – | 0.036 µM | – | 0.15 | 0.02 µM
CO[C@H]1/C=C/O[C@@]2(C)Oc3c(C)c(O)c4c(=O)c(c5oc6cc(N7CCN(CCCO[C@@H]8COc9nc([N+](=O)[O-])cn9C8)CC7)cc(C)c6nc-5c4c3C2=O)NC(=O)/C(C)=C\C=C\[C@H](C)[C@H](O)[C@@H](C)[C@@H](O)[C@@H](C)[C@H](OC(C)=O)[C@@H]1C [Compound 29d, (7S,9E,11S,12R,13S,14R,15R,16R,17S,18S,19E,21Z)-2,15,17-Trihydroxy-11-methoxy-3,7,12,14,16,18,22,32-octamethyl-30-[4-(3-{[(6S)-2-nitro-5H,6H,7H-imidazo[2,1-b][1,3]oxazin-6-yl]oxy}propyl)piperazin-1-yl]-6,23,37-trioxo-8,27,38-trioxa-24,34-diazahexacyclo[23.11.1.1^4,7.0^5,36.0^26,35.0^28,33]octatriaconta-1(36)2,4,9,19,21,25,28,30,32,34-undecaen-13-yl acetate] | – | – | – | > 10 µM | 114% | 101% | 1.37 | – | 0.037 µM | – | 0.62 | 0.08 µM
CO[C@H]1/C=C/O[C@@]2(C)Oc3c(C)c(O)c4c(=O)c(c5oc6cc(C)cc(N7CCN(C(=O)c8cccc(-c9ccccn9)c8)CC7)c6nc-5c4c3C2=O)NC(=O)/C(C)=C\C=C\[C@H](C)[C@H](O)[C@@H](C)[C@@H](O)[C@@H](C)[C@H](OC(C)=O)[C@@H]1C [Compound 30g, (7S,9E,11S,12R,13S,14R,15R,16R,17S,18S,19E,21Z)-2,15,17-Trihydroxy-11-methoxy-3,7,12,14,16,18,22,30-octamethyl-6,23,37-trioxo-32-{4-[3-(pyridin-2-yl)benzoyl]piperazin-1-yl}-8,27,38-trioxa-24,34-diazahexacyclo[23.11.1.1^4,7.0^5,36.0^26,35.0^28,33]octatriaconta-1(36)2,4,9,19,21,25,28,30,32,34-undecaen-13-yl acetate] | – | – | – | > 10 µM | 99% | 61% | 0.96 | – | 0.026 µM | – | <0.08 | < 0.02 µM
CO[C@H]1/C=C/O[C@@]2(C)Oc3c(C)c(O)c4c(=O)c(c5oc6cc(C)cc(N7CCN(C(=O)c8ccc9occc9c8)CC7)c6nc-5c4c3C2=O)NC(=O)/C(C)=C\C=C\[C@H](C)[C@H](O)[C@@H](C)[C@@H](O)[C@@H](C)[C@H](OC(C)=O)[C@@H]1C [Compound 30h, (7S,9E,11S,12R,13S,14R,15R,16R,17S,18S,19E,21Z)-32-[4-(1-Benzofuran-5-carbonyl)piperazin-1-yl]-2,15,17-trihydroxy-11-methoxy-3,7,12,14,16,18,22,30-octamethyl-6,23,37-trioxo-8,27,38-trioxa-24,34-diazahexacyclo[23.11.1.1^4,7.0^5,36.0^26,35.0^28,33]octatriaconta-1(36)2,4,9,19,21,25,28,30,32,34-undecaen-13-yl acetate] | – | – | – | > 10 µM | 100% | 57% | 0.70 | – | 0.019 µM | – | <0.08 | < 0.02 µM
